Reference: ChEMBL document CHEMBL3400018, “One-pot catalyst free synthesis of novel kojic acid tagged 2-aryl/alkyl substituted-4H-chromenes and evaluation of their antimicrobial and anti-biofilm activities” (Bioorg Med Chem Lett, 2015)
≈ marks a conversion by molar mass, not a printed value. Calls of active or inactive are those of the source. The calls are words filed in the database; no cut-off is given here.

How the values were obtained:
Staphylococcus aureus [1] = test: Antimicrobial activity against Staphylococcus aureus MLS-16 MTCC 2940 after 24 hrs by well diffusion method; assay type: functional; settings: MLS-16 MTCC 2940, 24 h
Micrococcus luteus = test: Antimicrobial activity against Micrococcus luteus MTCC 2470 after 24 hrs by well diffusion method; assay type: functional; settings: MTCC 2470, 24 h
Bacillus subtilis [2] = test: Antimicrobial activity against Bacillus subtilis MTCC 121 after 24 hrs by well diffusion method; assay type: functional; settings: MTCC 121, 24 h
Candida albicans = test: Antimicrobial activity against Candida albicans MTCC 3017 after 24 hrs by well diffusion method; assay type: functional, organism-based
Raoultella planticola = test: Antimicrobial activity against Klebsiella planticola MTCC 530 after 24 hrs by well diffusion method; assay type: functional; settings: MTCC 530, 24 h
Escherichia coli [3] = test: Antimicrobial activity against Escherichia coli MTCC 739 after 24 hrs by well diffusion method; assay type: functional; settings: MTCC 739, 24 h
Pseudomonas aeruginosa = test: Antimicrobial activity against Pseudomonas aeruginosa MTCC 2453 after 24 hrs by well diffusion method; assay type: functional; settings: MTCC 2453, 24 h
Staphylococcus aureus [4] = test: Antimicrobial activity against Staphylococcus aureus MLS-16 MTCC 2940 assessed as inhibition of biofilm formation after 24 hrs; assay type: functional, organism-based; settings: MLS-16, 24 h
Escherichia coli [5] = test: Antimicrobial activity against Escherichia coli MTCC 739 assessed as inhibition of biofilm formation after 24 hrs; assay type: functional, organism-based; settings: MTCC 739, 24 h
Bacillus subtilis [6] = test: Antimicrobial activity against Bacillus subtilis MTCC 121 assessed as inhibition of biofilm formation after 24 hrs; assay type: functional, organism-based; settings: MTCC 121, 24 h
Escherichia coli [7] = test: Bactericidal activity against Escherichia coli MTCC 739 after 24 hrs by Mueller Hinton agar plate assay; assay type: functional; settings: MTCC 739, 24 h
Staphylococcus aureus [8] = test: Bactericidal activity against Staphylococcus aureus MLS-16 MTCC 2940 after 24 hrs by Mueller Hinton agar plate assay; assay type: functional; settings: MLS-16, 24 h
Bacillus subtilis [9] = test: Bactericidal activity against Bacillus subtilis MTCC 121 after 24 hrs by Mueller Hinton agar plate assay; assay type: functional; settings: MTCC 121, 24 h

| SMILES | MIC (Staphylococcus aureus [1]) [µg/mL] | MIC (Micrococcus luteus) [µg/mL] | MIC (Bacillus subtilis [2]) [µg/mL] | MIC (Candida albicans) | MIC (Raoultella planticola) [µg/mL] | MIC (Escherichia coli [3]) [µg/mL] | MIC (Pseudomonas aeruginosa) [µg/mL] | IC50 (Staphylococcus aureus [4]) [µg/mL] | IC50 (Escherichia coli [5]) [µg/mL] | IC50 (Bacillus subtilis [6]) [µg/mL] | MBC (Escherichia coli [7]) [µg/mL] | MBC (Staphylococcus aureus [8]) [µg/mL] | MBC (Bacillus subtilis [9]) [µg/mL] |
| --- | --- | --- | --- | --- | --- | --- | --- | --- | --- | --- | --- | --- | --- |
| O=c1cc(CO)oc(C2C=C(c3ccc4ccccc4c3)Oc3ccccc32)c1O (configuration not stated) | > 125 | > 125 | > 125 | inactive | > 125 | > 125 | > 125 |  |  |  |  |  |  |
| O=c1cc(CO)oc(C2C=C(c3ccc4c(c3)OCO4)Oc3ccccc32)c1O (configuration not stated) | > 125 | > 125 | 7.8 (≈ 19.9 µM) | inactive | > 125 | 15.6 (≈ 39.8 µM) | > 125 | > 125 | 17.8 (≈ 45.4 µM) | 8.1 (≈ 20.6 µM) | 31.2 (≈ 79.5 µM) | > 125 | 15.6 (≈ 39.8 µM) |
| O=c1cc(CO)oc(C2C=C(c3ccccc3)Oc3ccc(Cl)cc32)c1O (configuration not stated) | > 125 | > 125 | > 125 | inactive | > 125 | > 125 | > 125 |  |  |  |  |  |  |
| Cc1ccc(C2=CC(c3oc(CO)cc(=O)c3O)c3ccccc3O2)cc1 (configuration not stated) | 15.6 (≈ 43 µM) | > 125 | 15.6 (≈ 43 µM) | inactive | > 125 | 7.8 (≈ 21.5 µM) | > 125 | 18.6 (≈ 51.3 µM) | 9.1 (≈ 25.1 µM) | 20.1 (≈ 55.5 µM) | 15.6 (≈ 43 µM) | 31.2 (≈ 86.1 µM) | 31.2 (≈ 86.1 µM) |
| O=c1cc(CO)oc(C2C=C(c3ccc(Cl)cc3)Oc3ccccc32)c1O (configuration not stated) | 15.6 (≈ 40.8 µM) | > 125 | 7.8 (≈ 20.4 µM) | inactive | > 125 | > 125 | > 125 | 9.1 (≈ 23.8 µM) | > 125 | 3.6 (≈ 9.4 µM) | > 125 | 15.6 (≈ 40.8 µM) | 7.8 (≈ 20.4 µM) |
| COc1ccc(C2=CC(c3oc(CO)cc(=O)c3O)c3ccccc3O2)cc1 (configuration not stated) | 15.6 (≈ 41.2 µM) | > 125 | 7.8 (≈ 20.6 µM) | inactive | > 125 | 7.8 (≈ 20.6 µM) | > 125 | 15.4 (≈ 40.7 µM) | 6.1 (≈ 16.1 µM) | 10.2 (≈ 27 µM) | 7.8 (≈ 20.6 µM) | 31.2 (≈ 82.5 µM) | 15.6 (≈ 41.2 µM) |
| CC(C)CC1=CC(c2oc(CO)cc(=O)c2O)c2ccccc2O1 (configuration not stated) | 7.8 (≈ 23.8 µM) | > 125 | 7.8 (≈ 23.8 µM) | inactive | > 125 | > 125 | > 125 | 9.2 (≈ 28 µM) | > 125 | 11.3 (≈ 34.4 µM) | > 125 | 15.6 (≈ 47.5 µM) | 15.6 (≈ 47.5 µM) |
| CCC1=CC(c2oc(CO)cc(=O)c2O)c2ccccc2O1 (configuration not stated) | > 125 | > 125 | > 125 | inactive | > 125 | > 125 | > 125 |  |  |  |  |  |  |
| O=c1cc(CO)oc(C2C=C(c3ccccc3)Oc3ccccc32)c1O (configuration not stated) | 7.8 (≈ 22.4 µM) | > 125 | 3.9 (≈ 11.2 µM) | inactive | > 125 | 7.8 (≈ 22.4 µM) | > 125 | 8.3 (≈ 23.8 µM) | 5.2 (≈ 14.9 µM) | 3.4 (≈ 9.76 µM) | 7.8 (≈ 22.4 µM) | 15.6 (≈ 44.8 µM) | 7.8 (≈ 22.4 µM) |
| CC[C@H]1OC(=O)[C@H](C)[C@@H](O[C@H]2C[C@@](C)(OC)[C@@H](O)[C@H](C)O2)[C@H](C)[C@@H](O[C@@H]2O[C@H](C)C[C@H](N(C)C)[C@H]2O)[C@](C)(O)C[C@@H](C)C(=O)[C@H](C)[C@@H](O)[C@]1(C)O [ERYTHROMYCIN] |  |  |  |  |  |  |  | 0.23 (≈ 0.313 µM) | 0.31 (≈ 0.422 µM) | 0.19 (≈ 0.259 µM) |  |  |  |
| O=c1cc(CO)oc(C2C=C(c3ccccc3)Oc3ccc(Br)cc32)c1O (configuration not stated) | > 125 | > 125 | > 125 | inactive | > 125 | > 125 | > 125 |  |  |  |  |  |  |
| O=c1cc(CO)oc(C2C=C(c3cccc(O)c3)Oc3ccccc32)c1O (configuration not stated) | > 125 | > 125 | > 125 | inactive | > 125 | > 125 | > 125 |  |  |  |  |  |  |
| O=c1cc(CO)oc(C2C=C(c3cccs3)Oc3ccccc32)c1O (configuration not stated) | 7.8 (≈ 22 µM) | > 125 | 7.8 (≈ 22 µM) | inactive | > 125 | 15.6 (≈ 44 µM) | > 125 | 8.8 (≈ 24.8 µM) | 18.2 (≈ 51.4 µM) | 4.6 (≈ 13 µM) | 31.2 (≈ 88 µM) | 15.6 (≈ 44 µM) | 7.8 (≈ 22 µM) |
| O=C(O)c1cn(C2CC2)c2cc(N3CCNCC3)c(F)cc2c1=O [CIPROFLOXACIN] | 0.9 (≈ 2.72 µM) | 0.9 (≈ 2.72 µM) | 0.9 (≈ 2.72 µM) | inactive | 0.9 (≈ 2.72 µM) | 0.9 (≈ 2.72 µM) | 0.9 (≈ 2.72 µM) |  |  |  | 1.9 (≈ 5.73 µM) | 1.9 (≈ 5.73 µM) | 0.9 (≈ 2.72 µM) |
| O=c1cc(CO)oc(C2C=C(c3cc(F)cc(F)c3)Oc3ccccc32)c1O (configuration not stated) | > 125 | > 125 | > 125 | inactive | > 125 | > 125 | > 125 |  |  |  |  |  |  |
| O=c1cc(CO)oc(C2C=C(c3ccccc3)Oc3c(Cl)cc(Br)cc32)c1O (configuration not stated) | > 125 | > 125 | > 125 | inactive | > 125 | > 125 | > 125 |  |  |  |  |  |  |
| CC1=CC(c2oc(CO)cc(=O)c2O)c2ccccc2O1 (configuration not stated) | > 125 | > 125 | > 125 | inactive | > 125 | > 125 | > 125 |  |  |  |  |  |  |
| O=c1cc(CO)oc(C2C=C(c3ccccc3Br)Oc3ccccc32)c1O (configuration not stated) | > 125 | > 125 | > 125 | inactive | > 125 | > 125 | > 125 |  |  |  |  |  |  |
